17 molecules from US20220056019A1, “FARNESOID X RECEPTOR AGONISTS AND USES THEREOF” (Metacrine, Inc., priority 2018, published 2022) can be followed below.

Molecules are shown by their SMILES.

The target in this assay is T1, hFXR (Homo sapiens, UniProt Q96RI1).
T1 construct: expressed in transfected cells; host or cells: CV-1 cells
T1 sequence (Q96RI1 1-486): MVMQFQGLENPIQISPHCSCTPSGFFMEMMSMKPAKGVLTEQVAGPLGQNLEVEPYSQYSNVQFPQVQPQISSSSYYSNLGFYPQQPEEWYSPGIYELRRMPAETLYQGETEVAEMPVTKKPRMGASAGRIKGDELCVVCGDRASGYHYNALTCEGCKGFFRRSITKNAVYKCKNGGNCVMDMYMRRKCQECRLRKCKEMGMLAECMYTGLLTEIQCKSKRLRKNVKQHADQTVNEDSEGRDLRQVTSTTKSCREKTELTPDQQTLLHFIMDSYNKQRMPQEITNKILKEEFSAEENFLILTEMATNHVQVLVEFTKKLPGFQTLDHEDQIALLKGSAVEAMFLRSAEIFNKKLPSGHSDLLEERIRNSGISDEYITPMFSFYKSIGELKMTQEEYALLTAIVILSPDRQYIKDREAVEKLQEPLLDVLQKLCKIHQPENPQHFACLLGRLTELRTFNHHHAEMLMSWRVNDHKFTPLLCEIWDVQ
T1 sequence (P19793 1-462 partner): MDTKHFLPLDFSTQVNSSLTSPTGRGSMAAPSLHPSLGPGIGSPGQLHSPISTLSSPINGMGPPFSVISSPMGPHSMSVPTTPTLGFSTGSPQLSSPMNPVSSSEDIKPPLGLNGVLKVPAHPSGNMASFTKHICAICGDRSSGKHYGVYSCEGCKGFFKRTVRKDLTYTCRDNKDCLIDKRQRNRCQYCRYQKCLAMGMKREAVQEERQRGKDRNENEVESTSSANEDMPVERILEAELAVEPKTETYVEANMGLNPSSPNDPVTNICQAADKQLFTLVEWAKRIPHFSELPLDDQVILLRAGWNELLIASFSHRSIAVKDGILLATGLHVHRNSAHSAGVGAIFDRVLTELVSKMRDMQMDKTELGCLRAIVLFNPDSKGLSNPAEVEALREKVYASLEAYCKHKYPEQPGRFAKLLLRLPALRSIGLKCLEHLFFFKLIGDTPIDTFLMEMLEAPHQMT
Description: In Vitro FXR Assay (TK): TK-ECRE-luc reporter in transfected CV-1 cells. The assay is classed as cell-based. As to conditions: 18 hrs incubation, luminescence. Here is the method:
Example B-1: In Vitro FXR Assay (TK)
CV-1 cells were seeded at a density of 2,000,000 cells in a T175 flask with DMEM+10% charcoal double-stripped FBS and incubated at 37° C. in 5% CO2 for 18 h (O/N).
After 18 h of incubation, the medium in the T175 flask was changed with fresh DMEM+10% charcoal super-stripped serum. In a polypropylene tube, 2500 μL OptiMEM (Life Technologies, Cat #31985-062) was combined with expression plasmids for hFXR, hRXR, TK-ECRE-luc and pCMX-YFP. The tube was then briefly vortexed and incubated at room temperature for 5 minutes. Transfection reagent (X-tremeGENE HP from Roche, Cat #06 366 236 001) was added to the OptiMEM/plasmid mixture vortexed and incubated at room temperature for 20 minutes. Following incubation, the transfection reagent/DNA mixture complex was added to cells in the T175 flask and the cells were incubated at 37° C. in 5% CO2 for 18 h (O/N).
Compounds were serially diluted in DMSO and added to transfected CV-1 cells. The cells were then incubated for 18 hrs. The next day cells were lysed and examined for luminescence.
As a reminder, the EC50 is the midpoint of the concentration-response curve. Take `COc1ccc([C@H]2CC[C@H](CN(c3cc(-c4coc(C5CC5)n4)ccn3)C(=O)[C@H]3CC[C@H](OC(=O)NCC(C)(C)CO)CC3)CC2)nc1C` [Compound 1, trans-4-((4-(2-Cyclopropyloxazol-4-yl)pyridin-2-yl)((trans-4-(5-methoxy-6-methylpyridin-2-yl)cyclohexyl)methyl)carbamoyl)cyclohexyl (3-hydroxy-2,2-dimethylpropyl)carbamate]: the EC50 is ≤ 50 nM.

Regarding `COc1ccc([C@H]2CC[C@H](CN(c3cc(-c4coc(C(C)C)n4)ccn3)C(=O)[C@H]3CC[C@H](OC(=O)NCC(C)(C)CO)CC3)CC2)nc1C` [Compound 1.01, trans-4-((4-(2-Isopropyloxazol-4-yl)pyridin-2-yl)((trans-4-(5-methoxy-6-methylpyridin-2-yl)cyclohexyl)methyl)carbamoyl) cyclohexyl (3-hydroxy-2,2-dimethylpropyl)carbamate], the EC50 was 50 to 1000 nM.

`COc1ccc([C@H]2CC[C@H](CN(c3cc(-c4cnn(C(C)C)c4)ccn3)C(=O)[C@H]3CC[C@H](OC(=O)NCC(C)(C)CO)CC3)CC2)nc1C` [Compound 1.02, trans-4-((4-(1-Isopropyl-1H-pyrazol-4-yl)pyridin-2-yl) ((trans-4-(5-methoxy-6-methylpyridin-2-yl)cyclohexyl)methyl)carbamoyl) cyclohexyl (3-hydroxy-2,2-dimethylpropyl)carbamate]: the EC50 is ≤ 50 nM. For the molecule `COc1ncc([C@H]2CC[C@H](CN(c3cc(-c4coc(C5CC5)n4)ccn3)C(=O)[C@H]3CC[C@H](OC(=O)N4CCN(C)CC4)CC3)CC2)cc1C` [Compound 1.03, trans-4-((4-(2-Cyclopropyloxazol-4-yl)pyridin-2-yl)(((trans)-4-(6-methoxy-5-methylpyridin-3-yl)cyclohexyl)methyl)carbamoyl)cyclohexyl 4-methylpiperazine-1-carboxylate], the EC50 was ≤ 50 nM. The value for `COc1ncc([C@H]2CC[C@H](CN(c3cc(-c4cnn(C(C)C)c4)ccn3)C(=O)[C@H]3CC[C@H](OC(=O)N4CC(N(C)C)C4)CC3)CC2)cc1C` [Compound 1.04, trans-4-((4-(1-Isopropyl-1H-pyrazol-4-yl)pyridin-2-yl)(((trans)-4-(6-methoxy-5-methylpyridin-3-yl)cyclohexyl)methyl)carbamoyl) cyclohexyl 3-(dimethylamino)azetidine-1-carboxylate] was ≤ 50 nM; that for `COc1ncc([C@H]2CC[C@H](CN(c3cc(-c4cnn(C(C)C)c4)ccn3)C(=O)[C@H]3CC[C@H](OC(=O)N4CCN(C)CC4)CC3)CC2)cc1C` [Compound 1.05, trans-4-((4-(1-Isopropyl-1H-pyrazol-4-yl)pyridin-2-yl)(((trans)-4-(6-methoxy-5-methylpyridin-3-yl)cyclohexyl)methyl)carbamoyl) cyclohexyl 4-methylpiperazine-1-carboxylate] was 50 to 1000 nM.

On to `COc1ncc([C@H]2CC[C@H](CN(c3cc(-c4coc(C5CC5)n4)ccn3)C(=O)[C@H]3CC[C@H](OC(=O)N4CC(N(C)C)C4)CC3)CC2)cc1Cl` [Compound 1.06, trans-4-((((trans)-4-(5-Chloro-6-methoxypyridin-3-yl)cyclohexyl)methyl)(4-(2-cyclopropyloxazol-4-yl)pyridin-2-yl)carbamoyl)cyclohexyl 3-(dimethylamino)azetidine-1-carboxylate], for which the EC50 was ≤ 50 nM. On to `COc1ncc([C@H]2CC[C@H](CN(c3cc(-c4coc(C5CC5)n4)ccn3)C(=O)[C@H]3CC[C@H](OC(=O)N4CCN(C)CC4)CC3)CC2)cc1Cl` [Compound 1.07, trans-4-((((trans)-4-(5-Chloro-6-methoxypyridin-3-yl)cyclohexyl)methyl)(4-(2-cyclopropyloxazol-4-yl)pyridin-2-yl)carbamoyl)cyclohexyl 4-methylpiperazine-1-carboxylate], for which the EC50 is ≤ 50 nM. For the molecule `COc1ncc([C@H]2CC[C@H](CN(c3cc(-c4cnn(C(C)C)c4)ccn3)C(=O)[C@H]3CC[C@H](OC(=O)N4CC(N(C)C)C4)CC3)CC2)cc1Cl` [Compound 1.08, trans-4-((((trans)-4-(5-Chloro-6-methoxypyridin-3-yl)cyclohexyl)methyl)(4-(1-isopropyl-1H-pyrazol-4-yl)pyridin-2-yl)carbamoyl)cyclohexyl 3-(dimethylamino)azetidine-1-carboxylate], the EC50 is ≤ 50 nM. Turning to `COc1ncc([C@H]2CC[C@H](CN(c3cc(-c4cnn(C(C)C)c4)ccn3)C(=O)[C@H]3CC[C@H](OC(=O)N4CCN(C)CC4)CC3)CC2)cc1Cl` [Compound 1.09, trans-4-((((trans)-4-(5-Chloro-6-methoxypyridin-3-yl)cyclohexyl)methyl)(4-(1-isopropyl-1H-pyrazol-4-yl)pyridin-2-yl)carbamoyl)cyclohexyl 4-methylpiperazine-1-carboxylate], the EC50 is ≤ 50 nM. The value for `COc1ccc([C@H]2CC[C@H](CN(c3cc(-c4cnc(C5CC5)s4)ccn3)C(=O)[C@H]3CC[C@H](OC(=O)NCC(C)(C)O)CC3)CC2)cc1C` [Compound 2, trans-4-((4-(2-Cyclopropylthiazol-5-yl)pyridin-2-yl)(((trans)-4-(4-methoxy-3-methylphenyl)cyclohexyl)methyl)carbamoyl)cyclohexyl (2-hydroxy-2-methylpropyl)carbamate] was ≤ 50 nM; that for `COc1ccc([C@H]2CC[C@H](CN(c3cc(-c4cnc(C5CC5)o4)ccn3)C(=O)[C@H]3CC[C@H](OC(=O)N4CC(O)C4)CC3)CC2)cc1C` [Compound 2.01, trans-4-((4-(2-Cyclopropyloxazol-5-yl)pyridin-2-yl)((trans-4-(4-methoxy-3-methylphenyl)cyclohexyl)methyl)carbamoyl)cyclohexyl 3-hydroxyazetidine-1-carboxylate] was ≤ 50 nM.

For `COc1ccc([C@H]2CC[C@H](CN(c3cc(-c4coc(C5CC5)n4)ccn3)C(=O)[C@H]3CC[C@H](OC(=O)NCC(C)(C)O)CC3)CC2)cc1C` [Compound 2.02, trans-4-((4-(2-Cyclopropyloxazol-4-yl)pyridin-2-yl)((trans-4-(4-methoxy-3-methylphenyl)cyclohexyl)methyl)carbamoyl) cyclohexyl(2-hydroxy-2-methylpropyl)carbamate], the EC50 was ≤ 50 nM. The value for `COc1ccc([C@H]2CC[C@H](CN(c3cc(-c4cnn(C(C)C)c4)ccn3)C(=O)[C@H]3CC[C@H](OC(=O)N4CC(CO)C4)CC3)CC2)cc1C` [Compound 2.03, trans-4-((4-(1-Isopropyl-1H-pyrazol-4-yl)pyridin-2-yl)(((trans)-4-(4-methoxy-3-methylphenyl)cyclohexyl)methyl)carbamoyl)cyclohexyl 3-(hydroxymethyl) azetidine-1-carboxylate] was ≤ 50 nM; that for `COc1ccc([C@H]2CC[C@H](CN(c3cc(-c4cnn(C(C)C)c4)ccn3)C(=O)[C@H]3CC[C@H](OC(=O)NCC(C)(C)O)CC3)CC2)cc1C` [Compound 2.04, trans-4-((4-(1-Isopropyl-1H-pyrazol-4-yl)pyridin-2-yl) ((trans-4-(4-methoxy-3-methylphenyl)cyclohexyl)methyl)carbamoyl) cyclohexyl(2-hydroxy-2-methylpropyl)carbamate] was ≤ 50 nM; that for `COc1ccc([C@H]2CC[C@H](CN(c3cc(-c4cnn(C(C)C)c4)ccn3)C(=O)[C@H]3CC[C@H](OC(=O)NCC(C)(C)O)CC3)CC2)cc1Cl` [Compound 2.05, (trans)-4-((((trans)-4-(3-Chloro-4-methoxyphenyl)cyclohexyl)methyl)(4-(1-isopropyl-1H-pyrazol-4-yl)pyridin-2-yl)carbamoyl)cyclohexyl (2-hydroxy-2-methylpropyl)carbamate] was ≤ 50 nM.

Take `COc1ccc([C@H]2CC[C@H](CN(c3cc(-c4cnn(C(C)C)c4)ccn3)C(=O)[C@H]3CC[C@H](OC(=O)N4CCN(C)CC4)CC3)CC2)cc1Cl` [Compound 2.06, trans-4-(((trans-4-(3-Chloro-4-methoxyphenyl)cyclohexyl)methyl)(4-(1-isopropyl-1H-pyrazol-4-yl)pyridin-2-yl)carbamoyl)cyclohexyl 4-methylpiperazine-1-carboxylate]: the EC50 was ≤ 50 nM.
